For assay [1], the target named is DNA repair and recombination protein RAD54-like (Homo sapiens, UniProt Q92698). The assay is described as follows: inhibitors of human RAD54 branch migration, confirmation, biochemical, fluorescence, cherry-picked samples, dose series (AID 651657). The assay is classed as functional.
The target of assay [2] is T1, Histone-lysine N-methyltransferase NSD2 (Homo sapiens, UniProt O96028).
T1 sequence (O96028 whole entry): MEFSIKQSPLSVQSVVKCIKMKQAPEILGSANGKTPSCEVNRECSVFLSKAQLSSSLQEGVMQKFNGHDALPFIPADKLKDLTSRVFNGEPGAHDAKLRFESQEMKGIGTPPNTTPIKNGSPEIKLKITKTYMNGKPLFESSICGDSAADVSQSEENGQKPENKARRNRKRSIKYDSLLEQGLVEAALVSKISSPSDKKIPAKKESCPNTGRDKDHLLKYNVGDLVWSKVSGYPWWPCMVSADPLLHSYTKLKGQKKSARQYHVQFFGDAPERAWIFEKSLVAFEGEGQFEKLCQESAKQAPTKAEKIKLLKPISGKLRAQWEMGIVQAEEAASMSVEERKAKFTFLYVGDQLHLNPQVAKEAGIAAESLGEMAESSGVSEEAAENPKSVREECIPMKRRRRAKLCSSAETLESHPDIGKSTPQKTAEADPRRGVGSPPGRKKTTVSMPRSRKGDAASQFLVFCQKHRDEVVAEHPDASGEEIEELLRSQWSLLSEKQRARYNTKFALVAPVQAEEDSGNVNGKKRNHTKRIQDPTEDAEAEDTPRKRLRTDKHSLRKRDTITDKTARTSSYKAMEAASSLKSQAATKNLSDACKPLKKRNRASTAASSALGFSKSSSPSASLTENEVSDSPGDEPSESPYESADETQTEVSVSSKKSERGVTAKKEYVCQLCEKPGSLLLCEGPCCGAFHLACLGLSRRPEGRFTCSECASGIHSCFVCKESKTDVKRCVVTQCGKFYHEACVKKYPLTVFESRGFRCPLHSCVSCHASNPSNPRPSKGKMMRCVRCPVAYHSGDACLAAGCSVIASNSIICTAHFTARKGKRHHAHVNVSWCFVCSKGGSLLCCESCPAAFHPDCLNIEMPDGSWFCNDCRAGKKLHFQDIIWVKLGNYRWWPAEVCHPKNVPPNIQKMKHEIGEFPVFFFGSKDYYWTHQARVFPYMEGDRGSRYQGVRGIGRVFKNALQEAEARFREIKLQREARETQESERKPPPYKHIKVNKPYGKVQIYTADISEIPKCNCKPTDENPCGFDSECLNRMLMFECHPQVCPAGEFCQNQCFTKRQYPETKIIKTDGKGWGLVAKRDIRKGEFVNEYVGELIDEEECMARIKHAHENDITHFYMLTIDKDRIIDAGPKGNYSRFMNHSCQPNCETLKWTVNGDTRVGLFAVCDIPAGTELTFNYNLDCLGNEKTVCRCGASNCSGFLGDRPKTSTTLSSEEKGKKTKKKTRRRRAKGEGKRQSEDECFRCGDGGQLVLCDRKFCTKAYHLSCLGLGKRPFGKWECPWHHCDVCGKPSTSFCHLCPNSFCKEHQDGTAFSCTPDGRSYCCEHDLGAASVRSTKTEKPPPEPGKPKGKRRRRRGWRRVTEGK
The assay is classed as biochemical.

The target in assay [3] is Ras and Rab interactor 1/Tyrosine-protein kinase ABL1 (Homo sapiens, UniProt P00519+Q13671). Type of assay: functional.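 Also: biochemical TR-FRET dose-response test measuring inhibition of binding between Rin1 and Abl proteins.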
Ras and Rab interactor 1/Tyrosine-protein kinase ABL1, sequence (P00519 whole entry): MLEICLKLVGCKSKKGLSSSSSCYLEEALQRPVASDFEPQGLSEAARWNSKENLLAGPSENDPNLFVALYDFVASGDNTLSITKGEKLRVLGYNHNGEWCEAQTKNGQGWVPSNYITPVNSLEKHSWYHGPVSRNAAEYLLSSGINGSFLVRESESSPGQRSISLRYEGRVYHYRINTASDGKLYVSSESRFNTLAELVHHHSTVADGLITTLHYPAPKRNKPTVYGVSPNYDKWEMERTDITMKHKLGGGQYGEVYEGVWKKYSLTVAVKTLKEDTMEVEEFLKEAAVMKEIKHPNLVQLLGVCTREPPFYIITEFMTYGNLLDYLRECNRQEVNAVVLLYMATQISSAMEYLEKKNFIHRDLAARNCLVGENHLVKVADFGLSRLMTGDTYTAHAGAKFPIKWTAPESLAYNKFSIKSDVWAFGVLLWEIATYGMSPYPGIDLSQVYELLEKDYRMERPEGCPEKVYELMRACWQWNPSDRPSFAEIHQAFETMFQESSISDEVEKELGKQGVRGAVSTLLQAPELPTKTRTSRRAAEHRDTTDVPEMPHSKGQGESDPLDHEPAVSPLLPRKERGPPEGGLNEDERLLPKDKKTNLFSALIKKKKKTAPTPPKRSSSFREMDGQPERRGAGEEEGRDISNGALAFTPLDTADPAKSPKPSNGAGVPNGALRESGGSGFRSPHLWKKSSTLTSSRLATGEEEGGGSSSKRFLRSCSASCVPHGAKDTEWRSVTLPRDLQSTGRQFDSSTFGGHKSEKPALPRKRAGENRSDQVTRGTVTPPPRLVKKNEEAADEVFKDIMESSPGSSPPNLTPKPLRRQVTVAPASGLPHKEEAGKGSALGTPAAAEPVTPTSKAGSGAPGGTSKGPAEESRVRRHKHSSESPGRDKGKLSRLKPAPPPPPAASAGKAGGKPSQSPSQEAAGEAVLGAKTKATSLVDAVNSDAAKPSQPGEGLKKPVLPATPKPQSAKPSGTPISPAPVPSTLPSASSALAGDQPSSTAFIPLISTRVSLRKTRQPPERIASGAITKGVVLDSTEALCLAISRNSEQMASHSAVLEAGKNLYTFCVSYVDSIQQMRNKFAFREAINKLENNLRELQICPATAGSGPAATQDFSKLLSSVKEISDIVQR
Ras and Rab interactor 1/Tyrosine-protein kinase ABL1, sequence (Q13671 whole entry): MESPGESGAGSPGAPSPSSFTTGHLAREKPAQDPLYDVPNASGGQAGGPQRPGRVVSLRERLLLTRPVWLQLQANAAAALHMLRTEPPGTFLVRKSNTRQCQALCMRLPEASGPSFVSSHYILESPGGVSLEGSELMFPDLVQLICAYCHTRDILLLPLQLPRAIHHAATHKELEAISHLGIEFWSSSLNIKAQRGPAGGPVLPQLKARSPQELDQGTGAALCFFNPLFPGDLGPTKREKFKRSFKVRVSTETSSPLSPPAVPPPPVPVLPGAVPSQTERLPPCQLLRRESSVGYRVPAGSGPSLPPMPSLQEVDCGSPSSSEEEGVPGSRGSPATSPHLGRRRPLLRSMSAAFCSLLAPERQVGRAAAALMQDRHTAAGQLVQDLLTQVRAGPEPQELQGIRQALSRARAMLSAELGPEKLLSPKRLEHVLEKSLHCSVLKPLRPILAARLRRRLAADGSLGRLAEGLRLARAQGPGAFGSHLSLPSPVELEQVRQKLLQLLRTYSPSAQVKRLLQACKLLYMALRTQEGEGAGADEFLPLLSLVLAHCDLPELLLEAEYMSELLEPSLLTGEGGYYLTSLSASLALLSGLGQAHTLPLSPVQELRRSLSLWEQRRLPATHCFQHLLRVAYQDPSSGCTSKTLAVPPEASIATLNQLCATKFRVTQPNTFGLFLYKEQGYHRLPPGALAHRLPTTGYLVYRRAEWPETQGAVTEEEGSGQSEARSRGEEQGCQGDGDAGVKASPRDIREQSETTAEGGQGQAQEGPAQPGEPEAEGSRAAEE
The target in the next assay is Nonstructural protein 1 (Influenza A virus, UniProt Q194T2). Type of assay: functional, Influenza A virus (A/California/07/2009(H1N1)).
Nonstructural protein 1, sequence (Q194T2 whole entry): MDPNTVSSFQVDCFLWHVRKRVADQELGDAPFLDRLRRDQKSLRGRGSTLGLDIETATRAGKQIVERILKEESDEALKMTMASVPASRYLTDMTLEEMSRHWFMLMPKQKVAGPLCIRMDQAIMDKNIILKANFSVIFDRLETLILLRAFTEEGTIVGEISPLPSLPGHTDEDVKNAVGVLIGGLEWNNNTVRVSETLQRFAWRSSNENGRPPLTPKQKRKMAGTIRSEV
The target of assay [4] is T2, High affinity choline transporter 1 (Homo sapiens, UniProt Q9GZV3).
T2 sequence (Q9GZV3 whole entry): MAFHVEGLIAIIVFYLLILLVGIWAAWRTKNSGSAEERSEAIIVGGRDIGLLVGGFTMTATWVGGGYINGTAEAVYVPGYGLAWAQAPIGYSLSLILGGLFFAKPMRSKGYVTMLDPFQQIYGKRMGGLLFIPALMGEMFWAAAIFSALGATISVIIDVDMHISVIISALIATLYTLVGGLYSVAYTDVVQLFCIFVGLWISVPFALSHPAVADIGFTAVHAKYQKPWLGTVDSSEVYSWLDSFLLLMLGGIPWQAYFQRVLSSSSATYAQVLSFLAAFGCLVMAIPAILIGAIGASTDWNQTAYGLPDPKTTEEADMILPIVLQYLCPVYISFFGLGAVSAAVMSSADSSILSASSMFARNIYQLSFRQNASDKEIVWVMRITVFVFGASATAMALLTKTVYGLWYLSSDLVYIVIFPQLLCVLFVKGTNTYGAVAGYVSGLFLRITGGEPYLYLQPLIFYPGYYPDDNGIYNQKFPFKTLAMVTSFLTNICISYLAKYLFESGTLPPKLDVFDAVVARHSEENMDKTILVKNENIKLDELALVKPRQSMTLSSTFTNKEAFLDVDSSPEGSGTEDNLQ
As to the kind of experiment: CHT inhibitors, dose response, cell-based, 5-point CRC, membrane potential dye (AID 504840). Type of assay: functional.

The target in assay [5] is T2, High affinity choline transporter 1. The assay is described as follows: CHT inhibitors, dose response, cell-based, 10-point CRC, membrane potential dye (AID 588401).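 Also: membrane potential dye fluorescence of choline-evoked depolarization via CHT.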 Type of assay: functional.
The target of a further assay is T3, Protein RecA (Mycobacterium tuberculosis, UniProt P9WHJ3).
T3 sequence (P9WHJ3 whole entry): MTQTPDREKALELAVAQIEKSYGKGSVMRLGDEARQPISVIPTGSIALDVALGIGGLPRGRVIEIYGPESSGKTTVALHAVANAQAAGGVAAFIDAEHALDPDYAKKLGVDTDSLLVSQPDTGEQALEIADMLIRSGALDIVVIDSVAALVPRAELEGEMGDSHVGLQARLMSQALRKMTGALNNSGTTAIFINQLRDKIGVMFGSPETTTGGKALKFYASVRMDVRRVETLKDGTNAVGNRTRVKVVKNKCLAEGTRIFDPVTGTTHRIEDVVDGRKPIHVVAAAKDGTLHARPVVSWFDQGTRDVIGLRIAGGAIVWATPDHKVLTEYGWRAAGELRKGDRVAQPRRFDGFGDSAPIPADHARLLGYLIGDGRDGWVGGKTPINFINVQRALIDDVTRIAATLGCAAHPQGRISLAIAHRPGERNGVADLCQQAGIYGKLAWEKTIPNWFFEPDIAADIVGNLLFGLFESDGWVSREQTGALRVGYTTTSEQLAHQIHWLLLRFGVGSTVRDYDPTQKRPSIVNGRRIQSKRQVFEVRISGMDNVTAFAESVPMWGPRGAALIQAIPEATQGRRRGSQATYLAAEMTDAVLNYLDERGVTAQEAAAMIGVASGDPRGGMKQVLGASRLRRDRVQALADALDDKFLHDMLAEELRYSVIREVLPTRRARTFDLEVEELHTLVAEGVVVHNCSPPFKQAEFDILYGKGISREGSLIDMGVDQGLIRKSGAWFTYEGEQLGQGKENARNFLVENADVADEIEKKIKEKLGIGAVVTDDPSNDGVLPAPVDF
As to the kind of experiment: Fluorescence Cell-Free Homogeneous Dose Retest to Identify Inhibitors of RecA-Intein Splicing Activity. [Related pubchem assays (depositor defined):AID2097, AID2223, AID489010, AID492950]. Type of assay: functional.

For assay [6], the target named is T4, Apoptotic protease-activating factor 1 (Homo sapiens, UniProt O14727).
T4 sequence (O14727 whole entry): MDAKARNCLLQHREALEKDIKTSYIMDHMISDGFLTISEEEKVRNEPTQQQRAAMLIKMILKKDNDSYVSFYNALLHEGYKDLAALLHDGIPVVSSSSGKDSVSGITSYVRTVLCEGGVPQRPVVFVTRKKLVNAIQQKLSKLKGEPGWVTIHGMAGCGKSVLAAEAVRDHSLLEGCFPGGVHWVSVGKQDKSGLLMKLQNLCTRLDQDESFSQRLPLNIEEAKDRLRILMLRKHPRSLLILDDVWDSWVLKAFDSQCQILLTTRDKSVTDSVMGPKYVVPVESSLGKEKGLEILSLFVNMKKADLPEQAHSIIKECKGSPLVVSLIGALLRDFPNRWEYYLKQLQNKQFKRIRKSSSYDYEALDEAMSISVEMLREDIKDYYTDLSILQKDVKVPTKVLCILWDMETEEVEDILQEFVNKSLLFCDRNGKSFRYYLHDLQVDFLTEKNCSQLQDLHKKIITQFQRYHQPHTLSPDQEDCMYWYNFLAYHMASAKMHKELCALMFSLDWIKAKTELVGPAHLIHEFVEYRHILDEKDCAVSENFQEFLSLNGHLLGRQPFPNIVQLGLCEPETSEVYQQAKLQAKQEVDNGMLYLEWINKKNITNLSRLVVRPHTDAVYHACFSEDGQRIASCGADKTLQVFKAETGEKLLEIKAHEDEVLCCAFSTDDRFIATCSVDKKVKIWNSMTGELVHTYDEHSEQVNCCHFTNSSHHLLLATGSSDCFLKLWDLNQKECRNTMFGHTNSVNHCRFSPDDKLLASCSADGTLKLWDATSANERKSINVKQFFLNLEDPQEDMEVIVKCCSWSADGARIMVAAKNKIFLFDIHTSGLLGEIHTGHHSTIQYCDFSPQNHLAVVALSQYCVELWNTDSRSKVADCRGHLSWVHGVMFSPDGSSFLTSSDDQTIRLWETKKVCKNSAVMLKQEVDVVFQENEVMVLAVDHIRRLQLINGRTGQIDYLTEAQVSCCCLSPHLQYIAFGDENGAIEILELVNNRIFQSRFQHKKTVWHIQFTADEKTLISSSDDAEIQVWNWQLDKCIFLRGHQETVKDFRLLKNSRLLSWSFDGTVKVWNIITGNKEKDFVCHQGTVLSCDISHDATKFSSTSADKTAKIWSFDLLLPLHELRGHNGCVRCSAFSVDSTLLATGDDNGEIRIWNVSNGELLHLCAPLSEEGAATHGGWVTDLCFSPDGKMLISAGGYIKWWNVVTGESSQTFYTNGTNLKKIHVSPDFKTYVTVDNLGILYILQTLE
The assay is classed as functional.

For assay [7], the target named is T5, Replicative DNA helicase DnaB (Mycobacterium tuberculosis, UniProt P9WMR3).
T5 sequence (P9WMR3 whole entry): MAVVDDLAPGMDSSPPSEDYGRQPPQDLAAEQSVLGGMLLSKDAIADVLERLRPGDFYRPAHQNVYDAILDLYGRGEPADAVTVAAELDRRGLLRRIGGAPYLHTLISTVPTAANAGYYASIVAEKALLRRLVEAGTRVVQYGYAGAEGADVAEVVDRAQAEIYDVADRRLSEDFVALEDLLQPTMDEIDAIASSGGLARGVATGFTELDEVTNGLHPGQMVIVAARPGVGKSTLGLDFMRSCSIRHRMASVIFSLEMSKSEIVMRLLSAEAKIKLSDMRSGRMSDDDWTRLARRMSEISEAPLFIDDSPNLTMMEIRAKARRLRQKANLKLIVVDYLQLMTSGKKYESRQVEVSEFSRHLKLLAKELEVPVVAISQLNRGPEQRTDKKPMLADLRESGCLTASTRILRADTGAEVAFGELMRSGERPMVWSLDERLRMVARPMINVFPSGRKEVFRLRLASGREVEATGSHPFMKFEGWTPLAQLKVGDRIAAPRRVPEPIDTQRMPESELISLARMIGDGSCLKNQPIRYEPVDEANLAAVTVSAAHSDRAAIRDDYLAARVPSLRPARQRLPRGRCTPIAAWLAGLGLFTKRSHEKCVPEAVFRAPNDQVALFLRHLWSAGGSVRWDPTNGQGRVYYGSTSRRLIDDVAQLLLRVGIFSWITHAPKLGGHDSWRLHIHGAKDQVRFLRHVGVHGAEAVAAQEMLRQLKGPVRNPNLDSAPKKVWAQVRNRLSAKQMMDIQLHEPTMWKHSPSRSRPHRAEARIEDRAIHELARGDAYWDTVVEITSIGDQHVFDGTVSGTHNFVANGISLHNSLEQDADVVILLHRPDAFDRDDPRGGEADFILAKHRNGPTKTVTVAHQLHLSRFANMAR
The assay is described as follows: DnaB intein splicing inhibitors, dose response, biochemical, cell-free fluorescence (AID 449749). Type of assay: functional.

In assay [8] the target is Tyrosine-protein phosphatase non-receptor type 5 (Homo sapiens, UniProt P54829). The assay is described as follows: STEP phosphatase inhibitors, confirmation, biochemical, fluorescence intensity, uHTS hits (AID 602372). The assay is classed as functional. The conditions noted are these: read-out: IC50_Mean.
Tyrosine-protein phosphatase non-receptor type 5, sequence (P54829 whole entry): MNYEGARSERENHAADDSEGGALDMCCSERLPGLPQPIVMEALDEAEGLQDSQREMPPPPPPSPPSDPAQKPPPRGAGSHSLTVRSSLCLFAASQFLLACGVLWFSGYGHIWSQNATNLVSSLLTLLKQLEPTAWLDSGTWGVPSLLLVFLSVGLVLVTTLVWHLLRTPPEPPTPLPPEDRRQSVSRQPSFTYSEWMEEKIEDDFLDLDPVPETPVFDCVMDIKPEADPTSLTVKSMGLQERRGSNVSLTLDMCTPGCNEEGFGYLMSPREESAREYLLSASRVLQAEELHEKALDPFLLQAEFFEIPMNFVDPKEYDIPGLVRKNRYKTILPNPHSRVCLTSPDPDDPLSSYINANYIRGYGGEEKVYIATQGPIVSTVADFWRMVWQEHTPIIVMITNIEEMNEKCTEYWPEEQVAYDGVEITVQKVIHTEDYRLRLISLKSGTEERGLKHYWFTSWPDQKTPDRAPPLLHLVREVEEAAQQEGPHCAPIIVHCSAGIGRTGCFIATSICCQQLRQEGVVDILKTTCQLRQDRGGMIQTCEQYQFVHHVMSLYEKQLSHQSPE
In assay [9] the target is Tyrosine-protein phosphatase non-receptor type 11 (Homo sapiens, UniProt Q06124). As to the kind of experiment: SHP2 phosphatase inhibition, dose response, selectivity assay for STEP inhibitor project, biochemical (AID 602367). Type of assay: functional. The conditions noted are these: read-out: IC50_Mean.
Tyrosine-protein phosphatase non-receptor type 11, sequence (Q06124 whole entry): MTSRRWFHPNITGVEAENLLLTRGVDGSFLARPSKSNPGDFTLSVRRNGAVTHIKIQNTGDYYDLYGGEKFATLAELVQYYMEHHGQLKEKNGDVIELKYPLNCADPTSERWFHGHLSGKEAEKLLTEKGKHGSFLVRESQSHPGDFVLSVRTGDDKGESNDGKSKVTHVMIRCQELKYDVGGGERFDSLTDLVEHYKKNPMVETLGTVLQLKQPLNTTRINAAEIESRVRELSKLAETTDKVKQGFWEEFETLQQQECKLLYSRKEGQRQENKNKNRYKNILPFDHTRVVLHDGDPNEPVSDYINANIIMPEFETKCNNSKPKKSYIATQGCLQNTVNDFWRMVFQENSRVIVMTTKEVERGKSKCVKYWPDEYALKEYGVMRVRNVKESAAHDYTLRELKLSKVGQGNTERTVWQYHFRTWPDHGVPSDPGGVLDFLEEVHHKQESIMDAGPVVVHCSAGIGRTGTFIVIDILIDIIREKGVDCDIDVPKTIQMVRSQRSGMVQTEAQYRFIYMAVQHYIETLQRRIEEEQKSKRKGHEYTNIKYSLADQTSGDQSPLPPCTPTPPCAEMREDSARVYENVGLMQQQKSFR
Assay [10] deals with Dual specificity protein phosphatase 3 (Homo sapiens, UniProt P51452). The assay is described as follows: VHR phosphatase inhibition, dose response, selectivity assay for STEP inhibitor project, biochemical (AID 602374). Type of assay: functional. As to conditions: read-out: IC50_Mean.
Dual specificity protein phosphatase 3, sequence (P51452 whole entry): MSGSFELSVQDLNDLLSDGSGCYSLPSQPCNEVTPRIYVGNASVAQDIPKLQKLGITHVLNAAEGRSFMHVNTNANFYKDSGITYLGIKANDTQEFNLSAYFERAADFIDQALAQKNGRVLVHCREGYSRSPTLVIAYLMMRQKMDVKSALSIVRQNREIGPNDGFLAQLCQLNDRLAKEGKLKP
Assay [11] concerns the target Adenosylmethionine-8-amino-7-oxononanoate aminotransferase (Mycobacterium tuberculosis, UniProt P9WQ81). As to the kind of experiment: Mycobacterium tuberculosis BioA enzyme inhibitor Measured in Biochemical System Using Plate Reader - 2163-02_Inhibitor_Dose_CherryPick_Activity. The assay is classed as functional, Mycobacterium tuberculosis UT205.

Activity calls are given as the source filed them.

Adenosylmethionine-8-amino-7-oxononanoate aminotransferase, sequence (P9WQ81 whole entry): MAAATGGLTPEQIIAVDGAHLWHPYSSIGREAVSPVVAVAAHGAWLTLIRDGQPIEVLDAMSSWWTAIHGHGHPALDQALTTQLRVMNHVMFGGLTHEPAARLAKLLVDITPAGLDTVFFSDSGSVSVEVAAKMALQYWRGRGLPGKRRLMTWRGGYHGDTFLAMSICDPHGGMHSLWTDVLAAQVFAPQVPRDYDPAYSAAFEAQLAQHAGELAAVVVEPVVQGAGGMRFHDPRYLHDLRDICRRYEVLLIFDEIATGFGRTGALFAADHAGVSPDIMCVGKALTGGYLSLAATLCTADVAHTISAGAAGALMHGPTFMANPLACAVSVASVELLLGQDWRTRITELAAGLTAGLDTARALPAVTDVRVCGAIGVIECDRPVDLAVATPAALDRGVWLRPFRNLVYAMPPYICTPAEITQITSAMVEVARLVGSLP
DNA repair and recombination protein RAD54-like, sequence (Q92698 whole entry): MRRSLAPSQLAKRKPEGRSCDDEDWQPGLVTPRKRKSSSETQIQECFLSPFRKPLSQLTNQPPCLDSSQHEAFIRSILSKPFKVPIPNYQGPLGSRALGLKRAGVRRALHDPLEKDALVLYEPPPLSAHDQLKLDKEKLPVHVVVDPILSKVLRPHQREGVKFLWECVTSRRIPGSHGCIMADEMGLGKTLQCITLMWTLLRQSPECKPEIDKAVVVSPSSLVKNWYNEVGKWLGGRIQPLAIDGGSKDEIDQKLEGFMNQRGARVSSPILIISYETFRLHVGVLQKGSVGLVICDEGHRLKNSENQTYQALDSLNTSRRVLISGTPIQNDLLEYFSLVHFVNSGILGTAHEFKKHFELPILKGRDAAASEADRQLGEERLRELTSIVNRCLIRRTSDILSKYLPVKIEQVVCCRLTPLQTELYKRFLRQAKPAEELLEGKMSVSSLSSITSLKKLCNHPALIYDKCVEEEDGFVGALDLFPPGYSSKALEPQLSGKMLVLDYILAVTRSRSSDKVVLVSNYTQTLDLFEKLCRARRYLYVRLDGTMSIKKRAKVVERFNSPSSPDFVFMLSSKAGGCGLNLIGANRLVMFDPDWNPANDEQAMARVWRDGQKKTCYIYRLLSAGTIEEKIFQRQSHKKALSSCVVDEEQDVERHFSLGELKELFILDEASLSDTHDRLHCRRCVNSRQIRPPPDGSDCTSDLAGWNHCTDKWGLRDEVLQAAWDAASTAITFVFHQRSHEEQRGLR

One may read the AC50 as the concentration giving half of the maximal activity seen. For the compound `CCN1CCN(c2cc(C)c3cc(NC(S)=NCCN(C)C)ccc3n2)CC1`, the AC50 in [1] was 24300 nM (active).
As to `Cc1ccc(NC(=O)CCCCCC2NC(=O)NC2C)cc1` (stereo unspecified), the AC50 in assay [2] was 358 nM (active). The IC50 in assay [3] is 14.5 nM (active); on Nonstructural protein 1, 1060 nM (active).
In the case of `CNc1nc(SC)nc2ccsc12`, the IC50 in assay [4] is 743 nM (active); in [5], 1500 nM (active).
For the compound `N#Cc1nc(Cc2cccc3ccccc23)oc1NCCCN1CCOCC1`, the IC50 was 3800 nM (active) in [4] and 1580 nM (active) in [5].
As usually defined, the EC50 is the concentration needed to bring the measured effect to its halfway point. In the case of `COc1ccc(S(=O)(=O)/N=C2\C=C(NS(=O)(=O)c3ccccc3)C(=O)c3ccccc32)cc1`, the EC50 at Protein RecA was 1580 nM (active). Further, in [6], the IC50 is 16600 nM (active). Further, in assay [7], the concentration at half-maximal activity (AC50) was 1890 nM (active).
`COc1ccc(NC(=O)c2cc(=O)c3ccccc3o2)cc1Cl`: the IC50 was > 80000 nM (inactive) in assay [8], 2820 nM (active) in assay [9] and 4600 nM (active) in assay [10].
For `O=C(Nc1cccnc1)c1cc2nc(C3CC3)cc(C(F)(F)F)n2n1`, in assay [11], the AC50 was 144 nM (active).
In the case of `CCOC(=O)c1ccc(N2C(=O)c3[nH]nc(C)c3C2c2ccc(OC)c(OC)c2)cc1` (stereo unspecified), the AC50 in assay [11] was 128 nM (active).

Values taken from ChEMBL document CHEMBL1201862, “PubChem BioAssay data set” (2004).
